This note sets out measurements from patent publication US10471154B2, “Spirocyclic indolone polyethylene glycol carbonate compound, composition, preparation method and use thereof” (priority 2016, dated 2019).

In general, solubility refers to the concentration that dissolves in the medium under given conditions. Read a low solubility as little dissolved substance.

Each structure is given as a SMILES string. Marks after values point to notes of the source that are not given here.

Data set [1] has as its system SJSA-1 xenografted tumor. Kind of data set: Inhibitory effect on the growth of SJSA-1 xenografted tumor in nude mice. It counts as in vivo. Particulars: for Inhibition rate (%) on the basis of tumor volume: End. How it is done:
72 Female Balb/c/nu nude mice (weighting 15-19 g) were provided by Beijing Huafukang BioScience Co., Inc. Certificate No.: SOCK (Beijing) 2014-0004.
(§1) Doxorubicin: prepared in sterile physiological saline at a concentration of 0.3 mg/ml; the administration dosage was 3.0 mg/kg; and the administration volume was 10 ml/kg.
(§2) rac-SIP: prepared in a solvent consisting of 4% DMA, 30% PEG400, and 66% (by volume) sterile distilled water to a solution with a concentration of 1.5 mg/ml; the administration dosage was 30.0 mg/kg, and the administration volume was 20 ml/kg.
(§3) rac-SIP-PEG-2: prepared in a solvent consisting of polyoxyethylene castor oil:95% ethanol:sterile physiological saline (1.5:1.5:7 by volume) to drug solutions with concentrations of 1.5 mg/ml and 3.0 mg/ml. The administration dosages were 15.0 mg/kg and 30.0 mg/kg. The administration volume was 10 ml/kg.
(§4) rac-SIP-PEG-3: prepared in sterile physiological saline to a solution with a concentration of 3.0 mg/ml. The administration dose was 30.0 mg/kg. The administration volume was 10 ml/kg.
(§5) chiral-R-SIP-PEG-3: prepared in sterile physiological saline to a solution with a concentration of 3.0 mg/ml. The administration dose was 30.0 mg/kg. The administration volume was 10 ml/kg.
(§6) rac-SIP-PEG-7: prepared in sterile physiological saline to a solution with a concentration of 3.0 mg/ml. The administration dose was 30.0 mg/kg. The administration volume was 10 ml/kg.
(§7) The administration dose was 50.0 mg/kg. The administration volume was 10 ml/kg.
Doxorubicin: at a dose of 3.0 mg/kg, administered intraperitoneally, once every other day, for a total of 6 times.
rac-SIP: at a dose of 30.0 mg/kg, administered by gavage, once a day, 6 times a week, for a total of 9 times.
rac-SIP-PEG-2: at a dose of 30.0 mg/kg, administered intraperitoneally, once a day, 6 times a week, for a total of 9 times.
rac-SIP-PEG-3: at a dose of 30.0 mg/kg, administered intraperitoneally, once a day, 6 times a week, for a total of 9 times.
chiral-R-SIP-PEG-3: at a dose of 30.0 mg/kg, administered intraperitoneally, once a day, 6 times a week, for a total of 9 times.
rac-SIP-PEG-7: at a dose of 30.0 mg/kg, administered intraperitoneally, once a day, 6 times a week, for a total of 9 times.
(§8) Tumor cells (SJSA-1) were harvested under aseptic conditions, and were adjusted to a cell density of 1×10^7 cells/ml with sterile physiological saline. 0.2 ml was inoculated under the skin of the axilla of nude mice, and the tumor was grown to have a diameter of 1 cm. The tumor was removed under aseptic conditions and cut into tumor masses with a size of 2.0 mm×2.0 mm, and evenly inoculated under the skin of the axilla of the nude mice. When the tumor volume reached about 250 mm^3 (8 days after inoculation), the animals were administered in groups with 9 mice in each group, and the animals with poor tumor growth were excluded. The control group used physiological saline as a control. […] Body weight was weighted 3 times a week, and the length a and the width b of the tumor were measured with a vernier caliper, and the volume of the tumor was calculated according to the formula V=a×b^2/2, where a is the length of the tumor and b is the width of the tumor. 21 Days after the inoculation, the nude mice were dislocated and photographed, and then the tumor was peeled off, weighed and photographed. RTV (relative tumor volume) and tumor inhibition rate were calculated. At the same time, the peripheral blood of nude mice was taken to count blood cells.
(§9) The data were processed by EXCEL software and expressed by Mean±SD, and the inter-group analysis was statistically processed using t test.

Data set [2] is described as follows: Body weights of SJSA-1 implanted nude mice (side effects). It counts as in vivo. How it is done: as §8, §9
Data set [3] can be described thus: physchem. Particulars: 25 °C, water, thermodynamic from solid.
Data set [4] in a line: Drug preparation: dissolving in physiological saline. It counts as physicochemical. Conditions: 3.0 mg/ml (Example 14: 5.0 mg/ml) in sterile physiological saline. The method, then: as §1, §2, §3, §4, §5, §6, §7
The mark [5] stands for this setting: End (21 days after inoculation), doxorubicin 3.0 mg/kg i.p. x6, rac-SIP 30.0 mg/kg gavage x9, SIP-PEG compounds 30.0 mg/kg i.p. x9, rac-SIP-MPEG-2000 50.0 mg/kg i.p. x9.
The mark [6] stands for this setting: vs saline control, doses and routes as in E5.

On to `COCCOCCOCCOC(=O)OC(C)OC(=O)c1ccc(NC(=O)[C@@H]2N[C@@H](CC(C)(C)C)[C@@]3(C(=O)Nc4cc(Cl)ccc43)[C@H]2c2cccc(Cl)c2F)c(OC)c1` (single isomer, unassigned) [chiral-R-SIP-PEG-3], for which the “Tumor volumes X ± SD (mm^3), End” value in data set [1] (setting [5]) is on record as 59.4 ± 46.3*** mm^3. Further, the “Tumor volumes X ± SD (mm^3), Start” value in data set [1] (Start of administration (8 days after inoculation)) is 252.9 ± 68.3 mm^3. For the same molecule, in data set [1] (administered by injection, 30.0 mg/kg (rac-SIP-MPEG-2000 50.0 mg/kg)), the “inhibitory effect on tumor growth compared with PEG-free rac-SIP given by gastrointestinal administration” value is “stronger inhibitory effect”. Further, the “Weights of Tumor X ± SD” value in data set [1] (tumor peeled off 21 days after inoculation, doses and routes as in E5) was 0.06 ± 0.05 g. In addition, in data set [1] (setting [6]), the “Inhibition rate (%) on the basis of tumor volume” value amounted to 97.90% and the “Inhibition rate (%) on the basis of tumor weight” value came to 97.84%. Also, the “Inhibition rate (%) on the basis of tumor volume” value in data set [1] (vs saline control, doses and routes as in E5, listed as chiral-R-PEG-3) was determined as 97.9%. Besides, in data set [2] (30.0 mg/kg i.p.), the “body weight increased, compared with the solvent control group” value was “about 11%”. For the same molecule, the “Body Weights X ± SD (g), End” value in data set [2] (setting [5]) was determined as 19.2 ± 1.2 g. Further, in data set [2] (Start of administration, dose per group 3.0/30.0/50.0 mg/kg as in Table 1), the “Body Weights X ± SD (g), Start” value is reported as 17.3 ± 0.9 g. For the same molecule, the solubility at 24 h in data set [3] is > 8000 µg/mL. Moreover, the “dissolving in physiological saline for administration” value in data set [4] was “could be directly dissolved in physiological saline”.
